The record followed here is ChEMBL document CHEMBL1909046, “DrugMatrix in vitro pharmacology data”.

Structures are written as SMILES.

Assay [1] has as its target T1, Alpha-2A adrenergic receptor (Homo sapiens, UniProt P08913). Note: in other assays of this panel Not Active means under 50% inhibition at 10 µM.
T1 sequence (P08913 whole entry): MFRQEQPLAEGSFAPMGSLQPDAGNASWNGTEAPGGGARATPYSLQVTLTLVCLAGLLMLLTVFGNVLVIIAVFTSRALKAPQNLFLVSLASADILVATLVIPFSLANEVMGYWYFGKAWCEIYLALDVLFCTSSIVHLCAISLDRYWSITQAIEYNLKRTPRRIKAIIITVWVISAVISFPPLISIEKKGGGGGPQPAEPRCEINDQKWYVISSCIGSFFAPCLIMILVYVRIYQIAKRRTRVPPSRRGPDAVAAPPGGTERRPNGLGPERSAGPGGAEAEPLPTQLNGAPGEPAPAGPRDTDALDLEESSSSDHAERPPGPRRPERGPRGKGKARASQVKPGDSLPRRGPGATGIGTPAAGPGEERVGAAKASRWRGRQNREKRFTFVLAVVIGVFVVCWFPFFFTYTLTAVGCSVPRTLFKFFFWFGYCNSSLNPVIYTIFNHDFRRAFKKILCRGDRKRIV
The format is cell membranes, Sf9, Membrane.

The nature of assay [2]: DRUGMATRIX: Calcium Channel Type L, Phenylalkylamine radioligand binding (ligand: [3H] (-)-Desmethoxyverapamil (D-888)). Type of assay: cell membranes, Rattus norvegicus, Wistar, Brain, Membrane. As to conditions: Not Active = under 50% inhibition at 10 µM.
In assay [3] the target is Sigma non-opioid intracellular receptor 1 (Homo sapiens, UniProt Q99720). Kind of assay: DRUGMATRIX: Sigma1 radioligand binding (ligand: [3H] Haloperidol). The format is cell membranes, Jurkat, Membrane. The settings on record: jurkat; Not Active = under 50% inhibition at 10 µM.
Assay [4] deals with T2, Alpha-1A adrenergic receptor (Rattus norvegicus, UniProt P43140).
T2 sequence (P43140 whole entry): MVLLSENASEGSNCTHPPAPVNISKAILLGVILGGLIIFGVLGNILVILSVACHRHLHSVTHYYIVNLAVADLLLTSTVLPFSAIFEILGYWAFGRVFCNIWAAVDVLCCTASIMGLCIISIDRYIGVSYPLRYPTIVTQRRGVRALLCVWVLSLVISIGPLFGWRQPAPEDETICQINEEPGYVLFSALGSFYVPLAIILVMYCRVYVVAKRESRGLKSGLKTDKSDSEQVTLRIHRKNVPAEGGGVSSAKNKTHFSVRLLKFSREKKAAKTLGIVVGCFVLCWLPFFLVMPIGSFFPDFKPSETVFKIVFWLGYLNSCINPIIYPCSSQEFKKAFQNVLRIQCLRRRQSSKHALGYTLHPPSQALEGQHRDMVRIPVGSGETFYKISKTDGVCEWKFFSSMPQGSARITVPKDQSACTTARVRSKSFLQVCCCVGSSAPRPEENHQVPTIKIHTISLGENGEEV
Put plainly: DRUGMATRIX: Alpha-1A adrenergic receptor radioligand binding (ligand: prazosin). Type of assay: cell membranes, Wistar, Submaxillary gland, Membrane. As to conditions: Not Active = under 50% inhibition at 10 µM.

Assay [5] addresses T3, Neuropeptide Y receptor type 2 (Homo sapiens, UniProt P49146).
T3 sequence (P49146 whole entry): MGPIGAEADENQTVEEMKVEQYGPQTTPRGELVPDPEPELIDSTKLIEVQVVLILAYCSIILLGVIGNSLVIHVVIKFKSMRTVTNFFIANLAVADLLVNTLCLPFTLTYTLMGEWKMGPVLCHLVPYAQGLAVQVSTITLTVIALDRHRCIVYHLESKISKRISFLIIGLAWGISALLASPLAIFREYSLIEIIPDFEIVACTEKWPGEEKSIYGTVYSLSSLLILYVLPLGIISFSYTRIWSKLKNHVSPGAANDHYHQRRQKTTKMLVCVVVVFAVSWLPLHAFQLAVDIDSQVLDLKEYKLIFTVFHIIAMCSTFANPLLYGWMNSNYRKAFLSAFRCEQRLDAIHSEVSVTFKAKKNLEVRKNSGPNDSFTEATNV
The format is cell membranes, Membrane. The settings on record: kan-ts.

The target of assay [6] is T4, C-X-C chemokine receptor type 1 (Homo sapiens, UniProt P25024). Note: in other assays of this panel Not Active means under 50% inhibition at 10 µM.
T4 sequence (P25024 whole entry): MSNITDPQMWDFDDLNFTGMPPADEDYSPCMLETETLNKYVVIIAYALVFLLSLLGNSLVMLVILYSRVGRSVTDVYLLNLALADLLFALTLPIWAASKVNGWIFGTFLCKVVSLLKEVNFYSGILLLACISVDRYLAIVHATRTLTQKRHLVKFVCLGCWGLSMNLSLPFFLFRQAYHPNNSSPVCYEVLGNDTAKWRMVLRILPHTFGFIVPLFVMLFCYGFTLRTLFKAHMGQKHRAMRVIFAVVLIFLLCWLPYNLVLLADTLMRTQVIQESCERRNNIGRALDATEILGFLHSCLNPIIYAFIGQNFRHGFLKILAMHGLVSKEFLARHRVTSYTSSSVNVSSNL

The target in the next assay is T5, Adenosine receptor A1 (Homo sapiens, UniProt P30542).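 Note: radioligand binding assay at the adenosine A1 receptor, with DPCPX serving as the labelled ligand; in other assays of this panel Not Active means under 50% inhibition at 10 µM.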
T5 sequence (P30542 whole entry): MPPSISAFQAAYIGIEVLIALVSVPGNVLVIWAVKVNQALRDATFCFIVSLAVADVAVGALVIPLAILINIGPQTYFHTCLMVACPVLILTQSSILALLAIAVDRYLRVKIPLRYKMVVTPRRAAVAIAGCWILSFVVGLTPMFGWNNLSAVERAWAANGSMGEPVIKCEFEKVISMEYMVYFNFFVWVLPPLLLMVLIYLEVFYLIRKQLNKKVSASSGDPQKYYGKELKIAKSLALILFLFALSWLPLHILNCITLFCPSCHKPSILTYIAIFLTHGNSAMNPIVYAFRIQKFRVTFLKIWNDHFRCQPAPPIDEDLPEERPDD
The format is cell membranes, CHO, Membrane.

Another assay addresses T6, Endothelin-1 receptor (Homo sapiens, UniProt P25101).
T6 sequence (P25101 whole entry): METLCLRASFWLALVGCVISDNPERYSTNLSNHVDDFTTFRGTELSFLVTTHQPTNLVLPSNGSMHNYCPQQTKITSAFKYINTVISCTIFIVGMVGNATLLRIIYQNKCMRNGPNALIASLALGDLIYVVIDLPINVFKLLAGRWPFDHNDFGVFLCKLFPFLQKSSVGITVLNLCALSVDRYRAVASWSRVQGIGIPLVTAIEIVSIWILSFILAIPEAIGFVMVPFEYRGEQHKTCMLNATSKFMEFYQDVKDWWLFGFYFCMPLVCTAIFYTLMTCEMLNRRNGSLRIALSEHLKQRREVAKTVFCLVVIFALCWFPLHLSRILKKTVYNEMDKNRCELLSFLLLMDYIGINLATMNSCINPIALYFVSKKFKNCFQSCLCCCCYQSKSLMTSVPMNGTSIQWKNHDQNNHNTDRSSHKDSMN
The format is cell membranes, Membrane. As to conditions: cho-k1.

The target in assay [7] is Receptor tyrosine-protein kinase erbB-2 (Homo sapiens, UniProt P04626). Kind of assay: biochemical. Type of assay: cell-based, Insect cells.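 Note: inhibition of HER2 kinase enzyme activity, measured with Poly(Glu:Tyr) as the phosphorylation substrate; in other assays of this panel Not Active means under 50% inhibition at 10 µM.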
Chain of Receptor tyrosine-protein kinase erbB-2 (P04626 whole entry): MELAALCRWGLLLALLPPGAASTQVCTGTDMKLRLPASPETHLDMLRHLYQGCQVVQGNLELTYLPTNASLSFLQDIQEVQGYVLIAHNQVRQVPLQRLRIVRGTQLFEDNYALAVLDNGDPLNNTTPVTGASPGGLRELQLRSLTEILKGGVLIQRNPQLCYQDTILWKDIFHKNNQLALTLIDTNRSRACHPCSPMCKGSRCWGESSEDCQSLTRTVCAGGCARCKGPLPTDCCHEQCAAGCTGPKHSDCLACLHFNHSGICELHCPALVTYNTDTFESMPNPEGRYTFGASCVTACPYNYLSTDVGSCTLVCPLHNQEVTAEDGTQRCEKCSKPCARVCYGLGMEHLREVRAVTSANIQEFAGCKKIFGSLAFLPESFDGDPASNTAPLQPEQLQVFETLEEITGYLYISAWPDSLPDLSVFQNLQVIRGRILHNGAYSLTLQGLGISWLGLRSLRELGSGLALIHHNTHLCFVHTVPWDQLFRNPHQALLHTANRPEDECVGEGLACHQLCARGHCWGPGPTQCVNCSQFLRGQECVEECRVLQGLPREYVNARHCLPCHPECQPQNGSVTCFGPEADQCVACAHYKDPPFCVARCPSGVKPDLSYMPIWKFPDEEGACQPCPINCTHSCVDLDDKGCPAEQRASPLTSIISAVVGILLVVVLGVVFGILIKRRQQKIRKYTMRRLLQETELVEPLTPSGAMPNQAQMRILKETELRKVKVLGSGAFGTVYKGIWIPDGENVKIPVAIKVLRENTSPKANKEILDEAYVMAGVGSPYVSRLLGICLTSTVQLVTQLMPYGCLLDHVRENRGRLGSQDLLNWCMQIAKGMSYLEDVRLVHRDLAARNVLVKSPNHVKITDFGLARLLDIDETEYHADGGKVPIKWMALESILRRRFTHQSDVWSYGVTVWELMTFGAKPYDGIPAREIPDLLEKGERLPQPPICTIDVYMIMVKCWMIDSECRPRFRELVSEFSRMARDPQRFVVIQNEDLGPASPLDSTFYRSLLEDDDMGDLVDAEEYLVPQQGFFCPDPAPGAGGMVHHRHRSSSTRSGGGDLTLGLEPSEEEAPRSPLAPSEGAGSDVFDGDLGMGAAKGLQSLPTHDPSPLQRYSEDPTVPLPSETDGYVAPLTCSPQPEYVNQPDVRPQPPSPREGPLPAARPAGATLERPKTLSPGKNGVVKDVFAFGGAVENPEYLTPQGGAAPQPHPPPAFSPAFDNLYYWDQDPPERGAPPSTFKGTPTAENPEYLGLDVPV

Chain of Sigma non-opioid intracellular receptor 1 (Q99720 whole entry): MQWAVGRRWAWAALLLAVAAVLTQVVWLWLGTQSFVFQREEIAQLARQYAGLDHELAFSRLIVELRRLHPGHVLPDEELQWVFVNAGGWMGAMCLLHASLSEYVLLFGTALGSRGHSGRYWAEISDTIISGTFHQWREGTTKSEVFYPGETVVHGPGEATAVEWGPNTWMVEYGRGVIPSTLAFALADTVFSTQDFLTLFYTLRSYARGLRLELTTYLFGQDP

For the molecule `COS(C)(=O)=O` [METHANESULFONIC ACID METHYL ESTER], the concentration for half-maximal inhibition (IC50) result in assay [1] (sf9), in assay [2], in assay [3], in assay [4], in [5] and in assay [6] was “Not Active” in each case. In addition, the 50% inhibitory concentration (IC50) entry (on Adenosine receptor A1 (cho); against Endothelin-1 receptor; in assay [7] (insect cells)) was “Not Active” in each case. Besides, the inhibition constant Ki result in assay [2] is given as “Not Active”.

In the case of `COC(=O)c1ccc(O)cc1` [METHYLPARABEN], the IC50 result in assay [1] (sf9), in [2], in [3], in [4], in [5] and in [6] was “Not Active” throughout. The IC50 result (against Adenosine receptor A1 (cho); at Endothelin-1 receptor; in assay [7] (insect cells)) was “Not Active” in each case. Further, the Ki result in [2] was “Not Active”.

For the molecule `C[C@](N)(Cc1ccc(O)cc1)C(=O)O` [METYROSINE], the 50% inhibitory concentration (IC50) entry in assay [1] (sf9), in [2], in assay [3], in assay [4], in [5] and in [6] was “Not Active” in each case. The IC50 result (on Adenosine receptor A1 (cho); against Endothelin-1 receptor; in [7] (insect cells)) was “Not Active” each time. In addition, the Ki entry in assay [2] is listed as “Not Active”.

As for `Clc1ccc(C(c2ccccc2Cl)C(Cl)Cl)cc1` (configuration not stated) [MITOTANE], the half-maximal inhibitory concentration (IC50) is 7350 nM in [1] (read-out: IC50); “Not Active” in assay [2]; “Not Active” in assay [3]; “Not Active” in assay [4]; “Not Active” in assay [5]; “Not Active” in [6]. Also, the 50% inhibitory concentration (IC50) entry (against Adenosine receptor A1 (cho); at Endothelin-1 receptor; in [7] (insect cells)) was “Not Active” in each case. Besides, the Ki is 2750 nM in [1] (read-out: Ki) and “Not Active” in [2].

With `O=C1c2c(O)ccc(O)c2C(=O)c2c(NCCNCCO)ccc(NCCNCCO)c21` [MITOXANTRONE], the concentration for half-maximal inhibition (IC50) result in assay [1] (sf9), in assay [2], in assay [3], in assay [4], in [5] and in [6] was “Not Active” in each case. Moreover, the IC50 result was “Not Active” on Adenosine receptor A1 (cho), “Not Active” against Endothelin-1 receptor and 2040 nM in assay [7] (read-out: IC50). Moreover, in [2], the inhibition constant (Ki) result is listed as “Not Active”.

Turning to `COc1c(C)c2c(c(O)c1C/C=C(\C)CCC(=O)OCCN1CCOCC1)C(=O)OC2` [MYCOPHENOLATE MOFETIL], the IC50 entry in assay [1] (sf9), in assay [2], in assay [3], in assay [4], in [5] and in assay [6] was “Not Active” throughout. Besides, the 50% inhibitory concentration (IC50) entry (against Adenosine receptor A1 (cho); at Endothelin-1 receptor; in assay [7] (insect cells)) was “Not Active” each time. Besides, in [2], the Ki entry is reported as “Not Active”.

On to `COC(=O)C1=C(C)NC(C)=C(C(=O)OC)C1c1ccccc1[N+](=O)[O-]` [NIFEDIPINE], for which the half-inhibitory concentration (IC50) result in [1] (sf9) is “Not Active”; in assay [2] (read-out: IC50), 878 nM; in [3], “Not Active”; in assay [4] it was “Not Active”; in [5], “Not Active”; in assay [6], “Not Active”. For the same molecule, the 50% inhibitory concentration (IC50) on Adenosine receptor A1 (read-out: IC50) was 7700 nM; against Endothelin-1 receptor, “Not Active”; in [7] (insect cells) it was “Not Active”. Besides, the Ki in [2] (read-out: Ki) stood at 853 nM; at Adenosine receptor A1 (read-out: Ki), 4490 nM.

Consider `NNc1ccccc1` [PHENYLHYDRAZINE], for which the half-inhibitory concentration (IC50) result in [1] (sf9), in assay [2], in [3], in assay [4], in assay [5] and in assay [6] was “Not Active” each time. Further, the IC50 entry (against Adenosine receptor A1 (cho); against Endothelin-1 receptor; in assay [7] (insect cells)) was “Not Active” in each case. For the same molecule, the Ki result in assay [2] was “Not Active”.

As to `NC(=O)c1ncn([C@@H]2O[C@H](CO)[C@@H](O)[C@H]2O)n1` [RIBAVIRIN], the 50% inhibitory concentration (IC50) result in assay [1] (sf9), in assay [2], in assay [3], in [4], in assay [5] and in assay [6] was “Not Active” in each case. The 50% inhibitory concentration (IC50) result (against Adenosine receptor A1 (cho); on Endothelin-1 receptor; in assay [7] (insect cells)) was “Not Active” each time. Also, the Ki entry in [2] is recorded as “Not Active”.
